Data taken from patent publication US11498899B2, “Nitrone herbicides” (FMC Corporation, priority 2016, dated 2022).

How the values were obtained:
kochia (Kochia scoparia) [1] = assay: Test A preemergence, visual injury rating 0-100; format: in vivo
[2] = tested on: ragweed (common ragweed, Ambrosia elatior); assay: Test A preemergence, visual injury rating 0-100; format: in vivo
[3] = tested on: pigweed (Amaranthus retroflexus); assay: Test A preemergence, visual injury rating 0-100; format: in vivo
[4] = tested on: ryegrass, Italian (Italian ryegrass, Lolium multiflorum); assay: Test A preemergence, visual injury rating 0-100; format: in vivo
[5] = tested on: foxtail, giant (giant foxtail, Setaria faberii); assay: Test A preemergence, visual injury rating 0-100; format: in vivo
[6] = tested on: barnyardgrass (Echinochloa crus-galli); assay: Test B flooded paddy test, visual rating 0-100; conditions: Flood, 250 g ai/ha, applied to paddy water, rated after 13 to 15 days
[7] = tested on: ducksalad (Heteranthera limosa); assay: Test B flooded paddy test, visual rating 0-100; conditions: Flood, 250 g ai/ha, applied to paddy water, rated after 13 to 15 days
[8] = tested on: galium (catchweed bedstraw, Galium aparine); assay: Test A postemergence, visual injury rating 0-100; format: in vivo; conditions: 0 to 100 scale
Text: (§1) Seeds of plant species selected from barnyardgrass (Echinochloa crus-galli), kochia (Kochia scoparia), ragweed (common ragweed, Ambrosia elatior), ryegrass, Italian (Italian ryegrass, Lolium multiflorum), foxtail, giant (giant foxtail, Setaria faberii), foxtail, green (green foxtail, Setaria viridis), and pigweed (Amaranthus retroflexus) were planted into a blend of loam soil and sand and treated preemergence with a directed soil spray using test chemicals formulated in a non-phytotoxic solvent mixture which included a surfactant.
(§2) At the same time, plants selected from these weed species and also wheat (Triticum aestivum), corn (Zea mays), blackgrass (Alopecurus myosuroides), and galium (catchweed bedstraw, Galium aparine) were planted in pots containing the same blend of loam soil and sand and treated with postemergence applications of test chemicals formulated in the same manner. Plants ranged in height from 2 to 10 cm and were in the one- to two-leaf stage for the postemergence treatment. Treated plants and untreated controls were maintained in a greenhouse for approximately 10 days, after which time all treated plants were compared to untreated controls and visually evaluated for injury. […] A dash (-) response means no test result.

corn (Zea mays) = assay: Test A postemergence, visual injury rating 0-100; format: in vivo; conditions: 0 to 100 scale
Text: as §1, §2

kochia (Kochia scoparia) [9] = assay: Test A postemergence, visual injury rating 0-100; format: in vivo; conditions: 0 to 100 scale
Text: as §1, §2

[10] = tested on: wheat (Triticum aestivum); assay: Test A postemergence, visual injury rating 0-100; format: in vivo; conditions: 0 to 100 scale
Text: as §1, §2

[11] = tested on: ragweed (common ragweed, Ambrosia elatior); assay: Test A postemergence, visual injury rating 0-100; format: in vivo; conditions: 0 to 100 scale
Text: as §1, §2

[12] = tested on: pigweed (Amaranthus retroflexus); assay: Test A postemergence, visual injury rating 0-100; format: in vivo; conditions: 0 to 100 scale
Text: as §1, §2

[13] = tested on: ryegrass, Italian (Italian ryegrass, Lolium multiflorum); assay: Test A postemergence, visual injury rating 0-100; format: in vivo; conditions: 0 to 100 scale
Text: as §1, §2

[14] = tested on: barnyardgrass (Echinochloa crus-galli); assay: Test A postemergence, visual injury rating 0-100; format: in vivo; conditions: 0 to 100 scale
Text: as §1, §2

[15] = tested on: foxtail, giant (giant foxtail, Setaria faberii); assay: Test A postemergence, visual injury rating 0-100; format: in vivo; conditions: 0 to 100 scale
Text: as §1, §2

[16] = tested on: blackgrass (Alopecurus myosuroides); assay: Test A postemergence, visual injury rating 0-100; format: in vivo; conditions: 0 to 100 scale
Text: as §1, §2

[17] = tested on: barnyardgrass (Echinochloa crus-galli); assay: Test A preemergence, visual injury rating 0-100 (0 no effect, 100 complete control); format: in vivo
rice (Oryza sativa) = assay: Test B flooded paddy test, visual rating 0-100 (0 no effect, 100 complete control); conditions: Flood, 250 g ai/ha, applied to paddy water, rated after 13 to 15 days
[18] = 31 g ai/ha, 0 to 100 scale (0 no effect, 100 complete control), approx. 10 days

Structure (SMILES) | Kochia plant response rating (0 to 100 scale) (kochia (Kochia scoparia) [1]; 125 g ai/ha) | Kochia plant response rating (0 to 100 scale) (kochia (Kochia scoparia) [1]; 500 g ai/ha) | Ragweed plant response rating (0 to 100 scale) ([2]; 125 g ai/ha) | Pigweed plant response rating (0 to 100 scale) ([3]; 125 g ai/ha) | Ryegrass, Italian plant response rating (0 to 100 scale) ([4]; 125 g ai/ha) | Foxtail, Giant plant response rating (0 to 100 scale) ([5]; 125 g ai/ha) | Barnyardgrass plant response rating (0 to 100 scale) [6] | Ducksalad plant response rating (0 to 100 scale) [7] | Galium plant response rating ([8]; 125 g ai/ha) | Corn plant response rating (corn (Zea mays); 125 g ai/ha) | Kochia plant response rating (kochia (Kochia scoparia) [9]; 125 g ai/ha) | Wheat plant response rating ([10]; 125 g ai/ha) | Ragweed plant response rating ([11]; 125 g ai/ha) | Pigweed plant response rating ([12]; 125 g ai/ha) | Ryegrass, Italian plant response rating ([13]; 125 g ai/ha) | Barnyardgrass plant response rating ([14]; 125 g ai/ha) | Foxtail, Giant plant response rating ([15]; 125 g ai/ha) | Blackgrass plant response rating ([16]; 125 g ai/ha) | Barnyardgrass plant response rating (0 to 100 scale) ([17]; 125 g ai/ha) | Rice plant response rating (0 to 100 scale) (rice (Oryza sativa)) | further results
CC1=[N+]([O-])C(C(=O)Nc2cccc(F)c2F)C(c2cc(F)cc(Oc3ccc(Cl)nc3)c2)C1 (racemic) [Compound 50] | 30 | 70 | 0 | 0 | 0 | 90 | 0 | 0 | 0 | 0 | 0 | 0 | 0 | 0 | 0 | 0 | 10 | 40 | 50 | 0 | Ragweed plant response rating (0 to 100 scale) ([2]; 500 g ai/ha): 0; Pigweed plant response rating (0 to 100 scale) ([3]; 500 g ai/ha): 40; Ryegrass, Italian plant response rating (0 to 100 scale) ([4]; 500 g ai/ha): 80; Foxtail, Giant plant response rating (0 to 100 scale) ([5]; 500 g ai/ha): 90; Galium plant response rating ([8]; 500 g ai/ha): 30; Corn plant response rating (corn (Zea mays); 500 g ai/ha): 40; Kochia plant response rating (kochia (Kochia scoparia) [9]; 500 g ai/ha): 50; Wheat plant response rating ([10]; 500 g ai/ha): 0; Ragweed plant response rating ([11]; 500 g ai/ha): 40; Pigweed plant response rating ([12]; 500 g ai/ha): 60; Ryegrass, Italian plant response rating ([13]; 500 g ai/ha): 20; Barnyardgrass plant response rating ([14]; 500 g ai/ha): 50; Foxtail, Giant plant response rating ([15]; 500 g ai/ha): 50; Blackgrass plant response rating ([16]; 500 g ai/ha): 70; Barnyardgrass plant response rating (0 to 100 scale) ([17]; 500 g ai/ha): 90
CC1=[N+]([O-])C(C(=O)Nc2cccc(F)c2F)C(c2ccc(F)c(Oc3ccc(Cl)nc3)c2)C1 (racemic) [Compound 51] | 0 | – | 0 | 0 | 0 | 30 | 0 | 0 | 70 | 0 | 20 | 10 | 60 | 0 | 0 | 0 | 0 | 70 | 40 | 0 | Kochia plant response rating (kochia (Kochia scoparia) [1]; [18]): 0; Ragweed plant response rating [2, 18]: 0; Pigweed plant response rating [3, 18]: 0; Ryegrass, Italian plant response rating [4, 18]: 0; Foxtail, Giant plant response rating [5, 18]: 0; Galium plant response rating ([8]; 31 g ai/ha): 60; Corn plant response rating (corn (Zea mays); 31 g ai/ha): 0; Kochia plant response rating (kochia (Kochia scoparia) [9]; 31 g ai/ha): 0; Wheat plant response rating ([10]; 31 g ai/ha): 0; Ragweed plant response rating ([11]; 31 g ai/ha): 0; Pigweed plant response rating ([12]; 31 g ai/ha): 0; Ryegrass, Italian plant response rating ([13]; 31 g ai/ha): 0; Barnyardgrass plant response rating ([14]; 31 g ai/ha): 0; Foxtail, Giant plant response rating ([15]; 31 g ai/ha): 0; Blackgrass plant response rating ([16]; 31 g ai/ha): 0; Barnyardgrass plant response rating [17, 18]: 0
CC1=[N+]([O-])C(C(=O)Nc2cccc(F)c2F)C(c2ccc(F)c(Oc3ncc(F)cn3)c2)C1 (racemic) [Compound 52] | 0 | 20 | 0 | 0 | 80 | 80 | 0 | 0 | 20 | 0 | 0 | 10 | 0 | 0 | 20 | 30 | 0 | 30 | 90 | 0 | Ragweed plant response rating (0 to 100 scale) ([2]; 500 g ai/ha): 60; Pigweed plant response rating (0 to 100 scale) ([3]; 500 g ai/ha): 70; Ryegrass, Italian plant response rating (0 to 100 scale) ([4]; 500 g ai/ha): 90; Foxtail, Giant plant response rating (0 to 100 scale) ([5]; 500 g ai/ha): 100; Galium plant response rating ([8]; 500 g ai/ha): 70; Corn plant response rating (corn (Zea mays); 500 g ai/ha): 70; Kochia plant response rating (kochia (Kochia scoparia) [9]; 500 g ai/ha): 20; Wheat plant response rating ([10]; 500 g ai/ha): 70; Ragweed plant response rating ([11]; 500 g ai/ha): 30; Pigweed plant response rating ([12]; 500 g ai/ha): 0; Ryegrass, Italian plant response rating ([13]; 500 g ai/ha): 60; Barnyardgrass plant response rating ([14]; 500 g ai/ha): 70; Foxtail, Giant plant response rating ([15]; 500 g ai/ha): 90; Blackgrass plant response rating ([16]; 500 g ai/ha): 70; Barnyardgrass plant response rating (0 to 100 scale) ([17]; 500 g ai/ha): 100
CC1=[N+]([O-])C(C(=O)Nc2cccc(F)c2F)C(c2cccc(Oc3ccc(Cl)cn3)c2)C1 (racemic) [Compound 56] | 0 | 0 | 0 | 0 | 60 | 60 | 25 | 40 | 30 | 0 | 10 | 20 | 0 | 0 | 50 | 20 | 40 | 70 | 10 | 0 | Ragweed plant response rating (0 to 100 scale) ([2]; 500 g ai/ha): 0; Pigweed plant response rating (0 to 100 scale) ([3]; 500 g ai/ha): 0; Ryegrass, Italian plant response rating (0 to 100 scale) ([4]; 500 g ai/ha): 70; Foxtail, Giant plant response rating (0 to 100 scale) ([5]; 500 g ai/ha): 90; Galium plant response rating ([8]; 500 g ai/ha): 50; Corn plant response rating (corn (Zea mays); 500 g ai/ha): 40; Kochia plant response rating (kochia (Kochia scoparia) [9]; 500 g ai/ha): 20; Wheat plant response rating ([10]; 500 g ai/ha): 40; Ragweed plant response rating ([11]; 500 g ai/ha): 20; Pigweed plant response rating ([12]; 500 g ai/ha): 30; Ryegrass, Italian plant response rating ([13]; 500 g ai/ha): 80; Barnyardgrass plant response rating ([14]; 500 g ai/ha): 60; Foxtail, Giant plant response rating ([15]; 500 g ai/ha): 40; Blackgrass plant response rating ([16]; 500 g ai/ha): 80; Barnyardgrass plant response rating (0 to 100 scale) ([17]; 500 g ai/ha): 90
